Consider one compound from US6423752B1, “Indane dimer compounds with smooth muscle relaxing and/or mast cell stabilizing and/or anti-inflammatory activity” (Venantius Limited, priority 1995, dated 2002).

What is called inhibition is the change of the read-out against control, counted positive when it falls.

Test [1] concerns mouse ear oedema. The test can be described thus: Mouse ear oedema model (arachidonic acid induced). The class given is in vivo, Laca mice. The conditions noted are these: 300 μg per ear topically 30 min prior to 400 μg arachidonic acid; 1 hour after arachidonic acid; n=4. The protocol: (§1) The compounds were assessed for their ability to stabilize mast cell membranes in vitro. Mast cells treated with the compounds and un-treated mast cells were stimulated to release histamine. A reduction in histamine release by the treated cells compared to the untreated cells indicates stabilisation of the membrane. The compounds were assessed for their ability to relax smooth muscle in vitro. Intestinal smooth muscle was stimulated to contract, using calcium chloride and subsequently treated with the compounds, relaxation of the contraction was measured for each compound. The effects of the compounds were also studied on relaxation of guinea-pig tracheal muscle. In the rat paw oedema test, the drugs were administered systemically prior to inducing inflammation by the injection of carageenan below the plantar aponeurosis of the hind paw. The volume of the paw was determined both before and after treatment as an index of oedema. In the mouse ear oedema test, the drugs were administered topically prior to inducing inflammation by the topical application of arachidonic acid. The width of the ear was determined both before and after treatment as an index of oedema.
The mouse ear oedema model was performed using Laca mice (25-35 g), of either sex. The animals were sedated with fentanyl/fluanisone (Hypnorm, Janssen). One ear was treated by the topical application of one of a range of test compounds, indomethacin or dexamethasone (all at 300 μg ear in acetone) drug. After 30 min, oedema was induced by the topical application of arachidonic acid (10 μl at […] in acetone). The thickness of each ear was measured, both before and 60 min after the induction of oedema, using a micrometer screw gauge. Ear oedema was calculated by comparing the ear width before and after induction of oedema and expressed as percentage normal.
Responses of the mouse ear to single doses of a range of compounds compared to the response to indomethacin and dexamethasone, each at a dose of 300 μg per ear administered topically 30 min prior to administration of 400 μg of arachidonic acid. Values are expressed as the percentage increase in ear thickness 1 hour after administration of arachidonic acid (all n=4, solvent controls (n=8)).

Test [2] deals with mast cells. The test can be described thus: Histamine release assay (compound 48/80 stimulated mast cells). The conditions noted are these: 2 × 10^−5 M, rat peritoneal mast cells. The class given is cell-based, Wistar rats. As for the experimental part:
as §1
The buffered salt solution (BSS) was prepared in advance (NaCl 137 mM; KCl 2.7 mM; MgCl2 1.0 mM; CaCl2 0.5 mM, NaH2PO4 0.4 mM; Glucose 5.6 mM; HEPES 10 mM). This was dispensed into test tubes and heated to 37° C., each test tube contained 4.5 ml BSS. The solvent blank was supplemented with 0.5% (v/v) dimethyl sulphoxide (DMSO) or 0.5% (v/v) distilled water (dH2O). The two positive controls were supplemented with 0.5% (v/v) dH2O/2×10^−5M disodium cromoglycate (DSCG) and 0.5% (v/v) DMSO/2×10^−5M DSCG. The test compounds' incubation tubes contained 2×10^−5M test compound/0.5% (v/v) DMSO. The basal release, maximum release and total histamine content incubation tubes contained no additions.
Female Wistar rats (200-300 g) were killed in an atmosphere of saturated CO2. Pre-warmed BSS (10 ml) was injected i.p. and the abdomen was massaged for 3 min. The BSS, with suspended mast cells and other cells, was aspirated following a mid-line incision. The aspirate was centrifuged for 5 min at 400 g and the supernatant removed. The cells were re-suspended in BSS, at 4° C., and centrifuged as before the cells were washed in this manner a total of three times. Following the final wash, the pelleted cells were stored at 4° C., for use as soon as possible.
The cells were re-suspended in 7 ml BSS. From this, 0.5 ml aliquots were transferred to each of the incubation tubes. After 10 min at 37° C. with gentle agitation, Compound 48/80 was added to a final concentration of […], in order to stimulate histamine release. The cell stimulation was stopped after 2 min by the addition of 0.5 ml ice cold BSS, the incubation tubes were transferred to an ice bath. The cell suspensions were centrifuged for 5 min at 400 g. The “total histamine content” tube was placed at 100° C. for 2 min prior to centrifugation. The supernatants were retained for histamine assay.
To 2 ml of supernatant from each tube was added 0.4 ml of 1M NaOH and 0.1 ml oPT (1% (w/v) in methanol). This was incubated at room temperature for 4 min. The reaction was stopped by the addition of 0.2 ml of 3M HCl. The supernatant from each incubation tube was assayed in duplicate and run simultaneously with a standard curve in the range 0-1000 ng/ml. The presence of the fluorescent product of the reaction was measured using a Shimazu RF-1501 spectrofluorophotometer set at λex=360 nm, λem=450 nm.
Each drug was tested on at least five animals (n=5). The results were expressed as a percentage of maximum, compound 48/80 induced, histamine release in the solvent blank sample. Each drug was compared to DSCG on the same tissues. The basal histamine release in untreated cells was noted, expressed as a percentage of the total histamine content of the cells in suspension. […]

Test [3] has as its system ileum. Kind of test: Smooth muscle effects: CaCl2 induced contractions of ileum. Set-up: species or system Guinea pigs. The conditions noted are these: Cavia porcellus, read-out: Percentage Inhibition of CaCl2 Induced Contractions. As for the experimental part:
as §1
Guinea pigs (350 g approx.), of either sex, were killed in an atmosphere of saturated CO2. The abdomen was opened by a mid-line incision and the small intestine was removed. The trachea was removed and sectioned between the cartilage rings, which were then split through.
Segments of ileum (1-1.5 cm) were suspended in a high potassium, no calcium Krebs buffer (NaCl 160.44 mM); KCl 45 mM; MgCl2 0.54 mM; NaH2PO4 0.89 mM; NaH2CO3 24.9 mM; Glucose 11.1 mM). Tracheal sections were suspended in normal Krebs buffer (NaCl […]; KCl 4.7 mM; CaCl2 2.5 mM; MgCl2 0.54 mM; NaH2PO4 0.89 mM; NaHCO3 24.9 mM; Glucose 11.1 mM). The solutions were maintained at 37° C. by a jacketed organ bath and gassed with 95% O2 and 5% CO2. The tissues were anchored by thread to the bottom of the organ bath and suspended from force displacement transducers under a resting tension of 1 g approx. in the case of ileum and 4 g approx. in the case of trachea. Isotonic contractions were recorded using a MacLab/4e system in conjunction with the Chart 3.3.1 software package. Surplus tissue was stored at 4° C. in Krebs buffer, for a maximum of 48 hours.
Four segments of tissue were suspended and observed concurrently. Contractions were initiated by the addition of 25 μl of 1M CaCl2 (a final concentration of 2.5 mM). The contractions stabilized with time, 10-15 min, and could be maintained for up to 45 min. from the addition of the CaCl2. The tracheal sections were allowed to develop spontaneous resting tension over a period of 30 mins.
Stock solutions of drug were prepared at 10^−3M in 50% (v/v) DMSO. These were diluted to give; 10^−4M in 5% (v/v) DMSO and 10^−5M in 0.5% (v/v) DMSO. In cases of poor solubility the 10^−3M stock was made up in higher concentrations of DMSO. Solvent ‘blank’ solutions were prepared containing 50%, 5% and 0.5% (v/v) DMSO (or as appropriate). […] A second cumulative dose-response assay was carried out using DMSO ‘blank’ solutions only.
Each drug was tested, in duplicate, on at least three different animals (n=3). The results were expressed as percentage inhibition of the CaCl2 induced contraction in the case of ideal tissue and percentage relaxation in the case of tracheal tissue, for each tissue, at each concentration of drug in DMSO. The effect of DMSO, for each tissue at each concentration, was subtracted from the effect of the drug in DMSO, to give the effect of the drug alone. A log dose vs. response curve was plotted for each drug using the mean and the standard error of the mean for the cumulated results.

On to `C=CCN(C1CCc2ccccc21)C1CC(=O)c2ccccc21` (centres unmarked) [Compound 5C6, 3-(N-prop-2-enyl-N-1-indanylamino)-indan-1-one], for which the “percentage increase in ear thickness (Mean %)” value in test [1] was 52.0%. For the same compound, the “Percentage Inhibition of Histamine Release” value in test [2] was found to be 77.77%. In test [3], the inhibition at 0.03 µM was -1%, the inhibition at 0.1 µM is 0.02%, the inhibition at 0.3 µM stood at 0.36% and the inhibition at 1 µM is 1.31%. Moreover, in test [3], the inhibition at 3 µM was found to be 8.84% and the inhibition at 10 µM amounted to 20.9%.
